Legend:
[1] = biological target: T1, hCBS Q222A (Homo sapiens, UniProt P35520, Q222A); assay: purified hCBS mutant enzyme assay; format: biochemical; details: 1 mM HA, 60 mM Cys, 1.2 μM CBS-413 Q222A
T1 construct: hCBS-413 (a C-terminal truncated hCBS 1–413); GST (N); made in house; host or cells: E. coli BL21
T1 sequence (P35520 1-413 Q222A): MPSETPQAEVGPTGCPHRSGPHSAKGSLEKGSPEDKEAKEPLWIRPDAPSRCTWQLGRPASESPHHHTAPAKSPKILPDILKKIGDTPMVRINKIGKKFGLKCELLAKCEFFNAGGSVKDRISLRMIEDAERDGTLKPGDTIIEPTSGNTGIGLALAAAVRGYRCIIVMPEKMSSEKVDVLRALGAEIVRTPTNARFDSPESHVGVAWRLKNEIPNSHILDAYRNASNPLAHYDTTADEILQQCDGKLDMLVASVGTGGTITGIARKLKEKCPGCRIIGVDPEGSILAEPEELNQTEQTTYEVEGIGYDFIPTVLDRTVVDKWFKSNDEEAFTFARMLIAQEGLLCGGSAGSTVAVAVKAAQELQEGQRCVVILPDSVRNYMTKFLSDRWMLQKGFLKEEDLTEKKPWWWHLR
Description: The IC50 values of CH004 for hCBS-413, hCBS-413 mutants, hCBS-FL, hCSE or hDDC were determined according to the standard assay conditions otherwise indicated.
Figure S6. […] HEK293T cells stably expressing CBS Q222A mutant (293T-CBS Q222A) were treated with 0 (DMSO control), 5 or 10 μM CH004 for 8 h before staining with the AzMC to detect H2S. The overlaid images of fluorescent and bright-field images are shown in the left panel, and the corresponding fluorescent (blue, H2S) and bright-field images are shown in the middle and right panels, respectively. Bars: 50 μm. [picture] Figure S7. The CH004-insensitive CBS Q222A mutant can be inhibited by HA. (A) HEK293T cells stably expressing CBS Q222A mutant (293T-CBS Q222A) were treated with 0 (DMSO, control), 5 or 10 μM of CH004, 1 mM or 2 mM of HA for 8 h before staining with the AzMC to detect H2S. The overlaid images of fluorescent and bright-field images are shown in the upper panel, and the corresponding fluorescent (blue, H2S) and bright-field images are shown in the middle and lower panels, respectively. Bars: 50 μm. (B) Quantification of the mean fluorescent density of H2S (blue). The intensity of blue light of the fluorescent images was quantified by ImageJ software, quantified and deduced the background signal in HEK293T-EV cells (Supplementary Figure S3B), normalized by the corresponding cell area and expressed as percentages of control (DMSO group, 100%). Means ± SDs (n=3). One-way ANOVA with Bonferroni post-tests was used for the analysis. *, p< 0.05; **, p< 0.01; n.s. no significance. The images are one representative from three independent experiments. (C) The inhibitory effect of 1 mM HA on purified CBS Q222A mutant. The assay was performed using 60 mM Cys and 1.2 μM CBS-413 Q222A mutant. The data were expressed as percentages of control (DMSO, 100%). Means ± SDs (n=4). [picture]
Table S2. Inhibitory effects of CH004 on hCBS WT and mutants.

[2] = biological target: T2, CBS-FL mutant (293T-CBS Q222A) (Homo sapiens, UniProt P35520, Q222A); assay: H2S in HEK293T cells stably expressing CBS Q222A (AzMC probe); format: cell-based; details: 1 mM or 2 mM HA, 8 h
T2 construct: human CBS or hCSE full-length (CBS-FL or CSE) was subcloned into pGEX-KG, pcDNA3 or pCDH vector; expressed in transfected cells
Description: HEK293T cells were transiently transfected with empty vector (EV, i and ii), hCBS-FL (iii and iv) or hCSE (v and vi) plasmids, followed by incubation with DMSO (i–iii and v) or 10 μM CH004 (iv and vi) for 8 h before staining with 50 μM AzMC, a H2S-specific probe (“Materials and Methods” section). For larger fluorescent and bright-field images, please see Supplementary Figure 4. The expression levels of hCBS or hCSE in HEK293T cells after transient transfections were determined by western blotting using an anti-CBS antibody (3E1, 1:2000; Abnova) or anti-CSE antibody (1:500, GeneTex). The densities of protein bands for hCBS or hCSE in the blots were quantified with the ImageJ software (National Institutes of Health, Bethesda, MD, USA) and expressed as ratios of respective control (EV group). […] The fluorescent images of the H2S (blue) were accordingly quantified (“Materials and Methods” section) with ImageJ. […] A representative fluorescence image from three independent experiments is shown. […]
H2S levels in living cells were detected using a H2S-specific fluorescent probe according to a protocol described previously[31],[55]. […] After incubation with 50 μM AzMC at 37 °C for 30 min, the cells were washed 4 times with PBS, and the fluorescent images were recorded with excitation by 405 nm laser by using a A1Si (Nikon) confocal microscope. […]

`NO` [HA, hydroxylamine, reference compound] was tested, and the “inhibitory effect on activity of purified CBS Q222A mutant” value [1] was “could be suppressed” and the “effect on H2S” value [2] was “substantially decreased”.
